# Measurements as given in patent US20230346775A1, “CANCER TREATMENT WITH TLR AGONIST” (BIRDIE BIOPHARMACEUTICALS, INC., priority 2020, published 2023).
# How the values were obtained:
# Format in all cases: in vivo, human
# [1] = Phase 1 pharmacokinetics: Compound A free base in plasma after intravenous infusion
# Text: (§1) A treatment cycle is 21 days with 3 weekly infusions on days 1, 8, and 15.
# The Mosteller Formula was used: BSA=√height (cm)×weight (kg)/3600.
# [2] = Phase 1 safety, drug-related adverse events, Compound A monotherapy
# Text: Toxicities and adverse events are sometimes graded according to a 5-point scale. A grade 1 or mild toxicity is asymptomatic or induces only mild symptoms; may be characterized by clinical or diagnostic observations only; and intervention is not indicated. A grade 2 or moderate toxicity may impair activities of daily living (such as preparing meals, shopping, managing money, using the telephone, etc.) but only minimal, local, or non-invasive interventions are indicated. Grade 3 toxicities are medically significant but not immediately life-threatening; hospitalization or prolongation of hospitalization is indicated; activities of daily living related to self-care (such as bathing, dressing and undressing, feeding oneself, using the toilet, taking medications, and not being bedridden) may be impaired. Grade 4 toxicities are life-threatening and urgent intervention is indicated. Grade 5 toxicity produces an adverse event-related death.
# as §1
# Most common drug-related AE's were associated with immune activation.
# [3] = Plasma IP-10 induction from baseline (MSD cytokine assay); conditions: human, plasma, intravenous; read-out: minimum Cmax required to induce enough IP-10 that results in clinical benefit
# Description: (§2) Pharmacodynamic analysis of Compound A included cytokine quantification and whole-blood RNA transcriptional profiling. Collected plasma samples were quantified for cytokine biomarkers implicated in inflammatory responses, immune system regulation, and other biological processes. Assays for cytokine quantification were performed by Frontage Laboratories, Inc. utilizing Meso Scale Discovery (MSD) V-PLEX and U-PLEX plates pre-coated with capture antibodies for IL-5, IL-17A, IFN-γ, IL-2, IL-6, IL-8, IL-10, IL-12p70, TNF-α, IFN-α, IFN-β, and IP-10. Plasma samples were added directly to the plate to allow the analytes in the samples to bind to the capture antibodies. Electrochemiluminiscent label (MSD SOLFO-TAG™)-conjugated detection antibodies were then added to visualize the plates by a MSD plate reader. The luminescence intensity was measured to quantify the amount of captured analytes (or cytokine levels) in each sample. […] Plasma samples were collected at Cycle 1, Cycle 3, and Cycle 6. Of the cytokines quantified, IP-10, IFN-γ, IL-6, IL-8, IL-10, and TNF-α had detectable levels. […] The greater peak cytokine level from either Cycle 1 Days 1 or 8 were selected for the analysis to be inclusive of all subjects. […] Response was defined by best overall response—immune-related partial response (irPR), immune-related stable disease (irSD) with study duration over or under 18 weeks, and unconfirmed immune-related progressive disease (uirPD). Clinical benefit was defined as either partial response (irPR) or irSD >18 weeks. […] For example, patient A dosed with dose level 2 with slower metabolism may have higher AUC and/or Cmax than patient B who was dosed with dose level 3, as a result patient A may produce higher level of IP-10 induction from baseline.
# IP-10 = test: as above; conditions: for mean IP-10 induction level from baseline: 16 patients, Cycle 1
# Description: as §2
# IFN-γ = test: Plasma IFN-γ induction from baseline (MSD cytokine assay); conditions: monotherapy, data not shown
# Description: Pharmacodynamic analysis of Compound A included cytokine quantification and whole-blood RNA transcriptional profiling.
# Collected plasma samples were quantified for cytokine biomarkers implicated in inflammatory responses, immune system regulation, and other biological processes. Assays for cytokine quantification were performed by Frontage Laboratories, Inc. utilizing Meso Scale Discovery (MSD) V-PLEX and U-PLEX plates pre-coated with capture antibodies for IL-5, IL-17A, IFN-γ, IL-2, IL-6, IL-8, IL-10, IL-12p70, TNF-α, IFN-α, IFN-β, and IP-10. Plasma samples were added directly to the plate to allow the analytes in the samples to bind to the capture antibodies. Electrochemiluminiscent label (MSD SOLFO-TAG™)-conjugated detection antibodies were then added to visualize the plates by a MSD plate reader. The luminescence intensity was measured to quantify the amount of captured analytes (or cytokine levels) in each sample.
# Plasma samples were collected at Cycle 1, Cycle 3, and Cycle 6. Of the cytokines quantified, IP-10, IFN-γ, IL-6, IL-8, IL-10, and TNF-α had detectable levels. […] The greater peak cytokine level from either Cycle 1 Days 1 or 8 were selected for the analysis to be inclusive of all subjects.
# [4] = system: unresectable or metastatic solid tumors; test: Efficacy of Compound A salt monotherapy, best response by irRECIST; conditions: for patients with clinical benefit (irPR or irSD>18 weeks): 16 patients
# Description: as §1
# Response was defined by best overall response—immune-related partial response (irPR), immune-related stable disease (irSD) with study duration over or under 18 weeks, and unconfirmed immune-related progressive disease (uirPD). Clinical benefit was defined as either partial response (irPR) or irSD >18 weeks. IP-10 cytokine induction levels of 32 patients evaluable for efficacy, were analyzed with respect to dosage in Cycle 1.
# [5] = Clinical benefit (RECIST 1.1) versus AUC/Cmax, Compound A monotherapy; conditions: human, plasma, intravenous, Cmax of Compound A free base associated with greater likelihood of clinical benefit
# Text: (§3) Clinical benefit was defined as radiographic complete response, partial response or stable disease >18 weeks based on Response Evaluation Criteria in Solid Tumors (RECIST) version 1.1.
# advanced solid cancers [6] = test: as above
# Text: as §3
# [7] = Clinical benefit (RECIST 1.1) versus AUC/Cmax, Compound A in combination with pembrolizumab; conditions: human, combination with anti-PD-1 mAb (pembrolizumab)
# Text: as §3
# advanced solid cancers [8] = test: as above; conditions: combination with pembrolizumab
# Text: as §3
# [9] = Clinical benefit (RECIST 1.1) versus AUC/Cmax, Compound A in combination with atezolizumab; conditions: human, plasma, combination with anti-PD-L1 mAb (atezolizumab)
# Text: as §3
# advanced solid cancers [10] = test: as above; conditions: combination with atezolizumab
# Text: as §3
# [11] = IP-10 induction, >5-fold increase (n = 17)
# [12] = No IP-10 induction, <5-fold increase (n = 19)
smiles,measurement,setting,value
"CCOCc1nc2c(N)nc3ccccc3c2n1CC(C)(C)O [Compound A, 1-[4-amino-2-(ethoxymethyl)imidazo[4,5-c]quinolin-1-yl]-2-methylpropan-2-ol]",Compound A free base exposure versus dose,[1]; five escalating dosages 0.30-0.90 mg/m^2 intravenously,dose-dependent increase
same,half-life,"[1]; human, plasma, iv",~4 h
same,dose dependence of toxicity,[2]; 0.30-0.90 mg/m^2,no apparent dose-dependent increase in toxicity
same,"Grade 1 AE, subjects (%)",[2]; [11],4 (24%)
same,"Grade 2 AE, subjects (%)",[2]; [11],7 (41%)
same,"Grade 3 AE, subjects (%)",[2]; [11],2 (12%)
same,"No AE, subjects (%)",[2]; [11],4 (24%)
same,"Grade 1 AE, subjects (%)",[2]; [12],6 (32%)
same,"Grade 2 AE, subjects (%)",[2]; [12],5 (26%)
same,"Grade 3 AE, subjects (%)",[2]; [12],1 (5%)
same,"No AE, subjects (%)",[2]; [12],7 (37%)
same,Grade 4 or 5 adverse events,"[2]; monotherapy, 36 subjects",no Grade 4 or 5 adverse events
same,overall tolerability,"[2]; monotherapy, 36 subjects",well-tolerated
same,subjects without any drug-related AE,"[2]; monotherapy, of 36 subjects",31%
same,"subjects without any drug-related AE, number","[2]; monotherapy, of 36 subjects",11
same,Cmax,[3],≥ 9.4 ng/mL
same,mean IP-10 induction level from baseline,IP-10; high AUC group (AUC above 2.09 ng/mL*Day),27.2 fold
same,mean IP-10 induction level from baseline,IP-10; high Cmax group (Cmax above 9.4 ng/mL),31.9 fold
same,mean IP-10 induction level from baseline,IP-10; low AUC group (AUC below 2.09 ng/mL*Day),3.68 fold
same,mean IP-10 induction level from baseline,IP-10; low Cmax group (Cmax below 9.4 ng/mL),5.09 fold
same,effect on blood IP-10 levels,"IP-10; monotherapy, FIG. 2A",significantly increased
same,effect on blood IFN-γ levels,IFN-γ,significantly increased
same,patients with clinical benefit (irPR or irSD>18 weeks),[4]; high AUC group (above 2.09 ng/mL*Day),7 patients
same,patients with clinical benefit (irPR or irSD>18 weeks),[4]; high Cmax group (above 9.4 ng/mL),7 patients
same,"partial response [PR], number of subjects","[4]; irRECIST, best response",2
same,"stable disease [SD], number of subjects","[4]; irRECIST, best response",18
same,disease control rate,"[4]; irRECIST, partial response + stable disease",63%
same,patients with clinical benefit (irPR or irSD>18 weeks),[4]; low AUC group (below 2.09 ng/mL*Day),two
same,patients with clinical benefit (irPR or irSD>18 weeks),[4]; low Cmax group (below 9.4 ng/mL),two
same,progressive disease (PD) as best response,[4]; monotherapy,38%
same,"progressive disease (PD) as best response, number",[4]; monotherapy,12 subjects
same,subjects with prolonged disease control (study duration >18 weeks),[4]; monotherapy,22%
same,"subjects with prolonged disease control (study duration >18 weeks), number",[4]; monotherapy,7 subjects
same,longest study duration,[4]; one subject on monotherapy,68 weeks
same,Cmax,[5],≥ 8.38 ng/mL
same,patients with clinical benefit,"advanced solid cancers [6]; high AUC group (above 3.42 ng/mL*Day), 14 patients",50%
same,patients with clinical benefit,"advanced solid cancers [6]; high Cmax group (above 8.38 ng/mL), 15 patients",47%
same,patients with clinical benefit,"advanced solid cancers [6]; low AUC group (below 3.42 ng/mL*Day), 18 patients",11%
same,patients with clinical benefit,"advanced solid cancers [6]; low Cmax group (below 8.38 ng/mL), 17 patients",12%
same,Cmax,"[7]; in vivo, intravenous",≥ 7.65 ng/mL
same,Cmax,[7]; plasma,7.6 ng/mL
same,patients with clinical benefit,"advanced solid cancers [8]; high AUC group (above 2.19 ng/mL*Day), 15 patients",47%
same,patients with clinical benefit,"advanced solid cancers [8]; high Cmax group (above 7.65 ng/mL), 16 patients",44%
same,patients with clinical benefit,"advanced solid cancers [8]; low AUC group (below 2.19 ng/mL*Day), 11 patients",27%
same,patients with clinical benefit,"advanced solid cancers [8]; low Cmax group (below 7.65 ng/mL), 10 patients",30%
same,Cmax,[9]; intravenous,≥ 10.5 ng/mL
same,Cmax,[9],10.5 ng/mL
same,patients with clinical benefit,"advanced solid cancers [10]; high AUC group (above 2.14 ng/mL*Day), 10 patients",50%
same,patients with clinical benefit,"advanced solid cancers [10]; high Cmax group (above 10.5 ng/mL), 10 patients",40%
same,patients with clinical benefit,"advanced solid cancers [10]; low AUC group (below 2.14 ng/mL*Day), 15 patients",20%
same,patients with clinical benefit,"advanced solid cancers [10]; low Cmax group (below 10.5 ng/mL), 15 patients",27%
